Results from patent US20130158075A1, “HETEROCYCLIC COMPOUNDS AS DGAT1 INHIBITORS” (PIRAMAL ENTERPRISES LIMITED, priority 2010, published 2013).

Tests used:
[1] = molecular target: T1, hDGAT1 (Homo sapiens, UniProt O75907); experiment: In-vitro DGAT1 assay with hDGAT1 microsomes from Sf9 cells (14C oleoyl CoA, scintillation counting); type: biochemical; conditions: read-out: Percentage inhibition of hDGAT1
T1 construct: made in house; host or cells: Sf9 insect cells (baculovirus); microsomal fraction
T1 sequence (O75907 1-488): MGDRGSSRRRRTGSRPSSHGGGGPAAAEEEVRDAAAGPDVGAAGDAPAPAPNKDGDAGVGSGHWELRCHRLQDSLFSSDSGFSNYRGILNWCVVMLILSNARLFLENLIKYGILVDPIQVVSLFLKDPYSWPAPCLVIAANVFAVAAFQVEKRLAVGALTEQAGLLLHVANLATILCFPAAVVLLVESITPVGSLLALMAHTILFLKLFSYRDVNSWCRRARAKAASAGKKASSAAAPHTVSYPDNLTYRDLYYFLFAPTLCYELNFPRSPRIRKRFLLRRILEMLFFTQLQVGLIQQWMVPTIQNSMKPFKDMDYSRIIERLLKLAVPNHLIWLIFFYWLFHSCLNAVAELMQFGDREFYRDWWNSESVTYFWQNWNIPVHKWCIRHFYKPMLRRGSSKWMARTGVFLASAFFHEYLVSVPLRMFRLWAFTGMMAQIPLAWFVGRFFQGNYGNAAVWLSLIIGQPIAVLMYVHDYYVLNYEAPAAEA
Procedure, shortened: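 Radiolabelled triglyceride formation was measured: heptane extracts were scintillation-counted after a 10-min, 37 °C reaction stopped with alkaline ethanol. Enzyme was human DGAT1 in baculovirus-infected Sf9 microsomal membranes; substrates were 14C oleoyl-CoA plus dioleoylglycerol. Runs were duplicated, and inhibition (%) was related to nM compound concentration.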

[2] = molecular target: DGAT2 (Homo sapiens, UniProt Q96PD7); conditions: cited from earlier work
[3] = test system: DGAT1 mediated retinyl-ester formation in Caco-2 cells; conditions: cited from earlier work

Chain of DGAT2 (Q96PD7 whole entry, species assumed): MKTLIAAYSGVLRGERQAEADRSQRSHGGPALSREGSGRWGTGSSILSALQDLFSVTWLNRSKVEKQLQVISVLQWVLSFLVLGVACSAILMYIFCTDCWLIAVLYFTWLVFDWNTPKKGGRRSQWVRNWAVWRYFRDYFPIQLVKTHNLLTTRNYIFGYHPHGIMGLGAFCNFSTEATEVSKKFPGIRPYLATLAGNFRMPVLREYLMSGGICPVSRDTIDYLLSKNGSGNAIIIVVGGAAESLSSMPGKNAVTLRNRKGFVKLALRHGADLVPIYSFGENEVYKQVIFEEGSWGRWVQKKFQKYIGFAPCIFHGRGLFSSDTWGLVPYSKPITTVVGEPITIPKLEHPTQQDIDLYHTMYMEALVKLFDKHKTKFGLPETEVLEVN

Row | Compound | inhibition at 1 µM [1] [%] | activity against DGAT2 [2] | block of DGAT1 mediated retinyl-ester formation [3]
1 | CC(C)(CCc1ncc(-c2ccc(NC(=O)Nc3ccccc3F)cc2)s1)C(=O)NS(=O)(=O)C(F)(F)F [Example 580, 4-(5-(4-(3-(2-Fluorophenyl)ureido)phenyl)thiazol-2-yl)-2,2-dimethyl-N-((trifluoromethyl)sulfonyl)butanamide] | > 50 |  | 
2 | CC(C)(CCc1ncc(-c2ccc(NC(=O)Nc3cc(F)cc(F)c3)cc2)s1)C(=O)NS(=O)(=O)C(F)(F)F [Example 581, 4-(5-(4-(3-(3,5-Difluorophenyl)ureido)phenyl)thiazol-2-yl)-2,2-dimethyl-N-((trifluoromethyl)sulfonyl)butanamide] | > 50 |  | 
3 | CC(C)(CCc1ncc(-c2ccc(NC(=O)Nc3cc(F)c(F)cc3F)cc2)s1)C(=O)NS(=O)(=O)C(F)(F)F [Example 582, 2,2-Dimethyl-N-((trifluoromethyl)sulfonyl)-4-(5-(4-(3-(2,4,5-trifluorophenyl)ureido)phenyl)thiazol-2-yl)butanamide] | > 50 |  | 
4 | O=C(Nc1ccc(-c2cnc(C3CCC(C(=O)O)CC3)s2)cc1)Nc1cc(F)c(F)cc1F (stereo not shown) [Example 584, 4-(5-(4-(3-(2,4,5-Trifluorophenyl)ureido)phenyl)thiazol-2-yl)cyclohexane carboxylic acid] | > 50 |  | 
5 | CC(C)(O)C1CCC(c2ncc(-c3ccc(NC(=O)Nc4cc(F)c(F)cc4F)cc3)s2)CC1 (stereo not shown) [Example 585, 1-(4-(2-(4-(2-Hydroxypropan-2-yl)cyclohexyl)thiazol-5-yl)phenyl)-3-(2,4,5-trifluorophenyl)urea] | > 50 |  | 
6 | CC(C)(N)C1CCC(c2ncc(-c3ccc(NC(=O)Nc4cc(F)c(F)cc4F)cc3)s2)CC1 (stereo not shown) [Example 587, 1-(4-(2-(4-(2-Aminopropan-2-yl)cyclohexyl)thiazol-5-yl)phenyl)-3-(2,4,5-trifluorophenyl)urea] | > 50 |  | 
7 | CC(C)(N)C1CCC(c2ncc(-c3ccc(NC(=O)Nc4ccc(F)cc4F)cc3)s2)CC1 (stereo not shown) [Example 589, 1-(4-(2-(4-(2-Aminopropan-2-yl)cyclohexyl)thiazol-5-yl)phenyl)-3-(2,4-difluorophenyl)urea] | > 50 |  | 
8 | CC(C)(N)CC1CCC(c2ncc(-c3ccc(NC(=O)Nc4cc(F)c(F)cc4F)cc3)s2)CC1 (stereo not shown) [Example 591, 1-(4-(2-(4-(2-Amino-2-methylpropyl)cyclohexyl)thiazol-5-yl)phenyl)-3-(2,4,5-trifluorophenyl)urea] | > 50 |  | 
9 | CC(C)C(NC(=O)c1ccc(-c2ccc(Nc3nc4ccc(F)cc4s3)cc2)cc1)C(=O)O (stereo not shown) [XP620, 2-(4′-(6-fluorobenzo[d]thiazol-2-ylamino)biphenyl-4-ylcarboxamido)-3-methylbutanoic acid] |  | no activity | able to block
